Data set [1] deals with PqsR (Pseudomonas aeruginosa, UniProt Q9I4X0). Kind of data set: E. coli based β-galactosidase reporter gene assay (PqsR inverse agonistic activity). The format is cell-based. Also noted: expressed in transfected cells; host or cells: Escherichia coli DH5α. The method in brief:
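E. coli DH5α carrying pEAL08-2 (tac-driven pqsR with pqsA-lacZ) was grown to OD600 0.2 and incubated with 0.001–10 μM compound plus 50 nM PQS for 2.5 h at 37 °C. β-Galactosidase activity was measured by ONPG conversion in permeabilized cells and normalized between the no-PQS and solvent controls. IC50 came from concentration variation.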
For orientation: A reporter such as luciferase makes a cellular process visible.

Data set [2] relates to P. aeruginosa pyocyanin production. Kind of data set: Pyocyanin assay. In kind it is cell-based, P. aeruginosa PA14. The settings on record: Pseudomonas aeruginosa, PA14, 16 h, read-out: IC50-value towards pyocyanin production, PA14 in PPGAS medium, 16 h. A digest of the protocol: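 PA14 in PPGAS medium from OD600 0.02 grown 16 h at 37 °C, 200 rpm, with compounds. Pyocyanin extracted with chloroform, back-extracted into 0.2 M HCl, OD520 normalised to OD600.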

Data set [3] is described as follows: Kinetic Turbidimetric Aqueous Solubility at room temperature for 5 min. The format is physicochemical. The settings on record: PBS buffer, kinetic from dmso stock, 2% DMSO. How it is done:
Kinetic Turbidimetric Aqueous Solubility at room temperature for 5 min. Test compound was diluted in PBS buffer to give a range of concentrations (typically 0.4, 2, 4, 20, 40, 100, and 200 μM, final DMSO concentration 2%) and incubated at room temperature for 5 min. Absorbance was measured at a wavelength of 620 nm and the solubility was estimated from the concentration of test compound that produces an increase in absorbance above the vehicle control (i.e., […]). Data was analyzed by fitting a four parameter sigmoidal function to the measured and normalized absorbances and AUC calculation providing access to Log S (decadic logarithm of the solubility).

A value given as a limit tells only on which side of the number the result lay.

In general, IC50 refers to the point on the concentration scale where inhibition reaches its midpoint. A word on the solubility: it is how much of the substance goes into solution per volume. Low values mean little dissolved substance, high ones much dissolved substance.

Chain of PqsR (Q9I4X0 whole entry): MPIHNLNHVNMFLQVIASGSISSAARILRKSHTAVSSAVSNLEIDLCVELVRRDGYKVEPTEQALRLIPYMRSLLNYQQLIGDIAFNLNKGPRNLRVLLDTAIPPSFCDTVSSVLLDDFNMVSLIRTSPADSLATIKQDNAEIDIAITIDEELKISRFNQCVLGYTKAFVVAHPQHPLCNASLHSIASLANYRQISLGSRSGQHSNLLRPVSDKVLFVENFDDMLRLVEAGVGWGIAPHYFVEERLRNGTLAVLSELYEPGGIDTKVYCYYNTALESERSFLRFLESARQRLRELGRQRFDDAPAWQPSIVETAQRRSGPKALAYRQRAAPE

`COc1ccc(-c2ncc(CNc3ccnc(C(F)(F)F)c3)s2)cc1C` [Compound 074, N-((2-(4-Methoxy-3-methylphenyl)thiazol-5-yl)methyl)-2-(trifluoromethyl)pyridin-4-amine]: the results for the IC50 in data set [1] and in data set [2] were 51 to 250 nM and 251 to 1000 nM, respectively. The compound also gave a solubility at 5 min in data set [3] above 25 µM.

As to `FC(F)(F)c1cc(NCc2ncc(-c3ccc(Oc4ccccc4)cc3)s2)ccn1` [Compound 078, N-((5-(4-Phenoxyphenyl)thiazol-2-yl)methyl)-2-(trifluoromethyl)pyridin-4-amine], the figures for the IC50 in data set [1] and in data set [2] were at most 50 nM and at most 250 nM, respectively. In addition, the solubility at 5 min in data set [3] is above 10 µM.

Turning to `FC(F)(F)c1cc(NCc2nnc(-c3ccc(Oc4ccccc4)cc3)[nH]2)ccn1` [Compound 095, N-((5-(4-Phenoxyphenyl)-4H-1,2,4-triazol-3-yl)methyl)-2-(trifluoromethyl)pyridin-4-amine], the IC50 was 51 to 250 nM in data set [1] and 251 to 1000 nM in data set [2]. Besides, the solubility at 5 min in data set [3] is above 25 µM.

With `FC(F)(F)c1cc(NCc2cc(-c3ccc(Oc4ccccc4)cc3)n[nH]2)ccn1` [Compound 096, N-((3-(4-Phenoxyphenyl)-1H-pyrazol-5-yl)methyl)-2-(trifluoromethyl)pyridin-4-amine], the IC50 lay in the range of 51 to 250 nM in data set [1] and 251 to 1000 nM in data set [2]. Besides, the solubility at 5 min in data set [3] was above 10 µM.

Take `COc1ccc(-c2ccc(CNc3ccnc(C(F)(F)F)c3)nc2)cc1Cl` [Compound 104, N-((5-(3-Chloro-4-methoxyphenyl)pyridin-2-yl)methyl)-2-(trifluoromethyl)pyridin-4-amine]: the half-inhibitory concentration (IC50) in data set [1] fell in the range of 51 to 250 nM; in data set [2], 1000 to 5000 nM. This compound had a solubility at 5 min in data set [3] above 10 µM.

`FC(F)(F)c1cc(NCc2cnc(-c3ccc(C4CC4)cc3)nc2)ccn1` [Compound 107, N-((2-(4-Cyclopropylphenyl)pyrimidin-5-yl)methyl)-2-(trifluoromethyl)pyridin-4-amine]: the half-inhibitory concentration (IC50) in data set [1] lay in the range of 51 to 250 nM; in data set [2] it was 251 to 1000 nM. This compound gave a solubility at 5 min in data set [3] above 10 µM.

Take `FC(F)(F)c1cc(SCc2ccc(-c3ccc(Cl)nc3)cn2)ccn1` [Compound 112, 6-Chloro-6′-(((2-(trifluoromethyl)pyridin-4-yl)thio)methyl)-3,3′-bipyridine]: the 50% inhibitory concentration (IC50) was in the range of 51 to 250 nM in data set [1] and 1000 to 5000 nM in data set [2]. The compound further registered a solubility at 5 min in data set [3] above 25 µM.

As for `FC(F)(F)c1cc(SCc2nc3cc(Cl)c(Cl)cc3[nH]2)ccn1` [Compound 119, 5,6-Dichloro-2-(((2-(trifluoromethyl)pyridin-4-yl)thio)methyl)-1H-benzo[d]imidazole], the values for the half-inhibitory concentration (IC50) in data set [1] and in data set [2] were 51 to 250 nM and 1000 to 5000 nM, respectively. Besides, in data set [3], the solubility at 5 min is above 25 µM.

On to `Fc1cccc(Oc2ccc(-n3cc(CNc4ccnc(C(F)(F)F)c4)nn3)cc2)c1` [Compound 145, N-((1-(4-(3-fluorophenoxy)phenyl)-1H-1,2,3-triazol-4-yl)methyl)-2-(trifluoromethyl)pyridin-4-amine], for which the values for the IC50 in data set [1] and in data set [2] were at most 50 nM and at most 250 nM, respectively. Besides, the solubility at 5 min in data set [3] was above 25 µM.

`FC(F)(F)c1cc(NCc2cn(-c3ccc(OC4CCOC4)c(Cl)c3)nn2)ccn1` (stereo not drawn) [Compound 153, N-((1-(3-chloro-4-((tetrahydrofuran-3-yl)oxy)phenyl)-1H-1,2,3-triazol-4-yl)methyl)-2-(trifluoromethyl)pyridin-4-amine]: the results for the IC50 in data set [1] and in data set [2] were at most 50 nM and 251 to 1000 nM, respectively. In data set [3], this compound returned a solubility at 5 min above 25 µM.

Regarding `FC(F)(F)c1cc(NCc2cn(-c3ccc(OC4CC4)c(Cl)c3)nn2)ccn1` [Compound 154, N-((1-(3-chloro-4-cyclopropoxyphenyl)-1H-1,2,3-triazol-4-yl)methyl)-2-(trifluoromethyl)pyridin-4-amine], the results for the IC50 in data set [1] and in data set [2] were at most 50 nM and 251 to 1000 nM, respectively. The compound further came in with a solubility at 5 min in data set [3] above 10 µM.

As for `CC(C)Oc1ccc(-n2cc(CNc3ccnc([N+](=O)[O-])c3)nn2)cc1Cl` [Compound 157, N-((1-(3-chloro-4-isopropoxyphenyl)-1H-1,2,3-triazol-4-yl)methyl)-2-nitropyridin-4-amine], the values for the 50% inhibitory concentration (IC50) in data set [1] and in data set [2] were at most 50 nM and at most 250 nM, respectively. This compound also displayed a solubility at 5 min in data set [3] above 10 µM.

For the compound `CC(C)Oc1ccc(-c2ncc(CNc3cc(Cl)nc(C(F)(F)F)c3)s2)cc1` [Compound 161, 2-Chloro-N-((2-(4-isopropoxyphenyl)thiazol-5-yl)methyl)-6-(trifluoromethyl)pyridin-4-amine], the IC50 is at most 50 nM in data set [1] and at most 250 nM in data set [2]. In addition, the solubility at 5 min in data set [3] is above 25 µM.

Turning to `CC(C)Oc1ccc(-c2ncc(CNc3cc(Cl)nc(C(F)(F)F)c3)cn2)cc1Cl` [Compound 166], the half-inhibitory concentration (IC50) in data set [1] was at most 50 nM; in data set [2], at most 250 nM. Moreover, the solubility at 5 min in data set [3] is above 25 µM.

With `FC(F)(F)c1cc(SCc2nc3cc(Sc4ccccc4)ccc3[nH]2)ccn1` [Compound 176, 5-(phenylthio)-2-(((2-(trifluoromethyl)pyridin-4-yl)thio)methyl)-1H-benzo[d]imidazole], the IC50 in data set [1] was at most 50 nM; in data set [2] it was 251 to 1000 nM. Also, the solubility at 5 min in data set [3] is above 10 µM.

Consider `FC(F)(F)c1cc(OCc2nc3cc(Oc4ccccc4)ccc3[nH]2)ccn1` [Compound 177, 5-phenoxy-2-(((2-(trifluoromethyl)pyridin-4-yl)oxy)methyl)-1H-benzo[d]imidazole], for which the IC50 was in the range of 251 to 1000 nM in data set [1] and 1000 to 5000 nM in data set [2]. In data set [3], this compound returned a solubility at 5 min above 25 µM.

Turning to `COC(=O)c1ccc(Oc2ccc3[nH]c(CSc4ccnc(C(F)(F)F)c4)nc3c2)cc1` [Compound 179, methyl 4-((2-(((2-(trifluoromethyl)pyridin-4-yl)thio)methyl)-1H-benzo[d]imidazol-5-yl)oxy)benzonate], the half-maximal inhibitory concentration (IC50) in data set [1] fell in the range of 251 to 1000 nM; in data set [2], 1000 to 5000 nM. Moreover, in data set [3], the solubility at 5 min was above 10 µM.

Turning to `Fc1cc2nc(CSc3ccnc(C(F)(F)F)c3)[nH]c2cc1Cl` [Compound 180, 6-chloro-5-fluoro-2-(((2-(trifluoromethyl)pyridin-4-yl)thio)methyl)-1H-benzo[d]imidazole], the results for the IC50 in data set [1] and in data set [2] were 251 to 1000 nM and 1000 to 5000 nM, respectively. For the same compound, in data set [3], the solubility at 5 min is above 50 µM.

On to `FC(F)(F)c1cc(NCc2nc3cc(Oc4ccccc4)ccc3[nH]2)ccn1` [Compound 182, N-((5-phenoxy-1H-benzo[d]imidazol-2-yl)methyl)-2-(trifluoromethyl)pyridin-4-amine], for which the results for the half-maximal inhibitory concentration (IC50) in data set [1] and in data set [2] were at most 50 nM and 251 to 1000 nM, respectively. The compound also had a solubility at 5 min in data set [3] above 50 µM.

As to `Nc1cc(SCc2nc3cc(Oc4ccccc4)ccc3[nH]2)cc(C(F)(F)F)n1` [Compound 183, 4-(((5-phenoxy-1H-benzo[d]imidazol-2-yl)methyl)thio)-6-(trifluoromethyl)pyridin-2-amine], the IC50 in data set [1] was at most 50 nM; in data set [2], at most 250 nM. The compound further yielded a solubility at 5 min in data set [3] above 25 µM.

For the origin of these results see patent US11883387B2, “PqsR inverse agonists” (HELMHOLTZ-ZENTRUM FÜR INFEKTIONSFORSCHUNG GMBH, priority 2018, dated 2024).
